This assay concerns T8A7 (in solution, with anchor) (RNA, riboswitch) GGGGAACAAACAUUCAAAAUAAUAACACAAGAUAUGAGCGAAUGACAGCAAGGGGAGAGACCUGACCGAAAACCUCGGGAUACAGGCGCCGAAGGAGCAAACUGCGGAGUGAAUCUCUCAGGCAAAAGAACUCUUGCUCGACGCAACUCUGGAGAGUGUUUGUGCGGAUGCGCAAACCACCAAAGGGGACGUCUUUGCGUAUGCAAAGUAAACUUUCAGGUGCCAGGACAGAGAAGAAGGACGGGUCCAGCUGCUUCGGCAGCUGUUGAGUAGAGUGUGAGCUUCUCU
Description: in-solution fluorescence titration, Spinach/DFHBI-1T turn-off. Conditions: 125 mM K+, 20 mM Mg2+; apparent; 50 mM Tris pH 8.31, 20 µM DFHBI-1T.

As for `NCC(=O)O`, the KD came out at 71 ± 4 µM.

(Values after publication PMC4937332 (2016).)
